Data reported in patent US4272437A, “Antibacterial agents, and 4-thio azetidinone intermediates” (priority 1979, dated 1981).
In brackets after ≈: the same amount, converted by molar mass. Where two headings read alike, the source gives them in different places.

How the values were obtained:
Ent. cloacae A-9659 = experiment: MIC, tube dilution, Enterobacter cloacae A9659; assay type: cell-based; settings: Enterobacter cloacae, A9659, Enterobacter cloacae A9659; overnight 37° C.; read-out: Minimum Inhibitory Concentration (M.I.C.)
Description: (§1) Representative compounds of the present invention were subjected to in vitro antibiotic screening against a variety of microorganisms.

[1] = tested on: Staph. aureus (Pen-Res) A-9606; experiment: MIC, tube dilution, Staphylococcus aureus A9606 (Pen-Res); assay type: cell-based; settings: Staphylococcus aureus, Staph. aureus A9606 (Pen-Res); overnight 37° C.; read-out: Minimum Inhibitory Concentration (M.I.C.)
Description: as §1

Ent. cloacae A-9656 = experiment: MIC, tube dilution, Enterobacter cloacae A9656; assay type: cell-based; settings: overnight 37° C., read-out: Minimum Inhibitory Concentration (M.I.C.)
Description: as §1

Proteus vulgaris A21559 = experiment: MIC, tube dilution, Proteus vulgaris A21559; assay type: cell-based; settings: Proteus vulgaris, A21559, Proteus vulgaris A21559; overnight 37° C.; read-out: Minimum Inhibitory Concentration (M.I.C.)
Description: as §1

[2] = tested on: Klebsiella species A20468; experiment: MIC, tube dilution, Klebsiella species A20468; assay type: cell-based; settings: Klebsiella species (K. pneumoniae) A20468; overnight 37° C.; read-out: Minimum Inhibitory Concentration (M.I.C.)
Description: as §1

Pr. morganii A-15153 = experiment: MIC, tube dilution, Proteus morganii A15153; assay type: cell-based; settings: Morganella morganii, A15153, Proteus morganii A15153; overnight 37° C.; read-out: Minimum Inhibitory Concentration (M.I.C.)
Description: as §1

Ser. marcescens A-20019 = experiment: MIC, tube dilution, Serratia marcescens A20019; assay type: cell-based; settings: Serratia marcescens, A20019, Serratia marcescens A20019; overnight 37° C.; read-out: Minimum Inhibitory Concentration (M.I.C.)
Description: as §1

Proteus rettgeri A21203 = experiment: MIC, tube dilution, Proteus rettgeri A21203; assay type: cell-based; settings: Providencia rettgeri, A21203, Proteus rettgeri A21203; overnight 37° C.; read-out: Minimum Inhibitory Concentration (M.I.C.)
Description: as §1

Pr. mirabilis A-9900 = experiment: MIC, tube dilution, Proteus mirabilis A9900; assay type: cell-based; settings: Proteus mirabilis, A9900, Proteus mirabilis A9900; overnight 37° C.; read-out: Minimum Inhibitory Concentration (M.I.C.)
Description: as §1

E. coli A-20341-1 = experiment: MIC, tube dilution, Escherichia coli A20341-1; assay type: cell-based
Description: as §1

K. pneumoniae A-15130 = experiment: MIC, tube dilution, Klebsiella pneumoniae A15130; assay type: cell-based; settings: Klebsiella pneumoniae, A15130, K. pneumoniae A15130; overnight 37° C.; read-out: Minimum Inhibitory Concentration (M.I.C.)
Description: as §1

Staph. aureus A-9537 = experiment: MIC, tube dilution, Staphylococcus aureus A9537; assay type: cell-based; settings: Staphylococcus aureus, A9537, Staph. aureus A9537; overnight 37° C., Nutrient Broth; read-out: Minimum Inhibitory Concentration (M.I.C.)
Description: as §1

Str. faecalis A-20688 = experiment: MIC, tube dilution, Streptococcus faecalis A20688; assay type: cell-based; settings: Enterococcus faecalis, A20688, Str. faecalis A20688; overnight 37° C.; read-out: Minimum Inhibitory Concentration (M.I.C.)
Description: as §1

[3] = tested on: Staph. aureus A-9537 and 50% serum; experiment: MIC, tube dilution, Staph. aureus A9537 + 50% serum; assay type: cell-based, Staphylococcus aureus; settings: Staphylococcus aureus, overnight 37° C., read-out: Minimum Inhibitory Concentration (M.I.C.)
Description: as §1

[4] = tested on: Staph. aureus (Meth-Res) A-15097; experiment: MIC, tube dilution, Staphylococcus aureus A15097 (Meth-Res); assay type: cell-based; settings: Staphylococcus aureus, overnight 37° C.
Description: as §1

Str. pyogenes A-9604 = experiment: MIC, tube dilution, Streptococcus pyogenes A9604; assay type: cell-based; settings: Streptococcus pyogenes, A9604, Str. pyogenes A9604; overnight 37° C., Nutrient Broth; read-out: Minimum Inhibitory Concentration (M.I.C.)
Description: as §1

Ps. aeruginosa A-9843A = experiment: MIC, tube dilution, Pseudomonas aeruginosa A9843A; assay type: cell-based; settings: Pseudomonas aeruginosa, A9843A, read-out: Minimum Inhibitory Concentration (M.I.C.), Pseudomonas aeruginosa A9843A; overnight 37° C.
Description: as §1

Ps. aeruginosa A-21213 = experiment: MIC, tube dilution, Pseudomonas aeruginosa A21213; assay type: cell-based; settings: overnight 37° C., read-out: Minimum Inhibitory Concentration (M.I.C.)
Description: as §1

S. aureus A9537 = experiment: In vivo protection of mice, lethal infection with S. aureus A9537; settings: Staphylococcus aureus, A9537, im, IM, 2 treatments, read-out: PD50
Protocol: Representative compounds of the present invention were also tested in vivo in mice and their PD50 (dose of compound in mg/kg required to protect 50% of the treated mice against an otherwise lethal infection of a micro-organism) values determined with respect to the test organisms shown below.

E. coli A-15119 = experiment: MIC, tube dilution, Escherichia coli A15119; assay type: cell-based; settings: Escherichia coli, A15119, E. coli A15119; overnight 37° C.; read-out: Minimum Inhibitory Concentration (M.I.C.)
Description: as §1

Str. pneumoniae A-9585 = experiment: MIC, tube dilution, Streptococcus pneumoniae A9585; assay type: cell-based; settings: Streptococcus pneumoniae, A9585, Str. pneumoniae A9585; overnight 37° C., Nutrient Broth; read-out: Minimum Inhibitory Concentration (M.I.C.)
Description: as §1

[5] = Enterobacter cloacae, A9656, Enterobacter cloacae A9656
[6] = Escherichia coli, A203411, E. coli A20341-1; overnight 37° C.; read-out: Minimum Inhibitory Concentration (M.I.C.)
[7] = read-out: Minimum Inhibitory Concentration (M.I.C.), Staph. aureus A15097 (Meth-Res)

Row | SMILES | MIC (Ent. cloacae A-9659) [µg/mL] | MIC [1] [µg/mL] | MIC (Ent. cloacae A-9656; [5]) [µg/mL] | MIC (Proteus vulgaris A21559) [µg/mL] | MIC [2] [µg/mL] | MIC (Pr. morganii A-15153) [µg/mL] | MIC (Ser. marcescens A-20019) [µg/mL] | MIC (Proteus rettgeri A21203) [µg/mL] | MIC (Pr. mirabilis A-9900) [µg/mL] | MIC (E. coli A-20341-1; [6]) [µg/mL] | MIC (K. pneumoniae A-15130) [µg/mL] | MIC (Staph. aureus A-9537) [µg/mL] | MIC (Str. faecalis A-20688) [µg/mL] | MIC [3] [µg/mL] | MIC (Str. pyogenes A-9604) [µg/mL] | MIC (Ps. aeruginosa A-9843A) [µg/mL] | MIC (E. coli A-15119) [µg/mL] | MIC (Str. pneumoniae A-9585) [µg/mL] | MIC [4, 7] [µg/mL] | MIC (Ps. aeruginosa A-21213; Pseudomonas aeruginosa A21213) [µg/mL] | also measured
1 | N#CCCC(N)C1=C(C(=O)O)N2C(=O)C[C@H]2S1 (stereo partly drawn) [Example 83, 2-(1'-Amino-3'-cyanopropyl)-penem-3-carboxylic Acid] | 16 (≈ 63.2 µM) | 32 (≈ 126 µM) | 4 (≈ 15.8 µM) | 8 (≈ 31.6 µM) | > 125 | 4 (≈ 15.8 µM) | 4 (≈ 15.8 µM) | 4 (≈ 15.8 µM) | 2 (≈ 7.9 µM) | 16 (≈ 63.2 µM) | 8 (≈ 31.6 µM) | 0.5 (≈ 1.97 µM) | 125 (≈ 494 µM) | 8 | 0.13 (≈ 0.513 µM) | 63 (≈ 249 µM) | 2 (≈ 7.9 µM) | 0.06 (≈ 0.237 µM) |  |  | MIC ([4]; Staph. aureus A15097 (Meth-Res), read-out: Minimum Inhibitory Concentration (M.I.C.)): > 125 µg/mL; MIC (Ps. aeruginosa A-21213; Pseudomonas aeruginosa, A21213, Pseudomonas aeruginosa A21213): 63 µg/mL (≈ 249 µM); ED50 (S. aureus A9537; 1.1 × 10^6 organisms): 3.3 mg/kg
2 | CC1(C)OCC(C(N)C2=C(C(=O)O)N3C(=O)CC3S2)O1 [Example 84, (1'R,2'R,5R and 1'S,2'S,5S),(1'R,2'R,5S and 1'S,2'S,5R), (1'R,2'S,5S and 1'S,2'R,5R), (1'R,2'S,5R and 1'S,2'R,5S) 2-(1'-Amino-2,3-dihydroxy-2,3-acetonylpropyl)-penem-3-carboxylic Acid] | 125 (≈ 416 µM) | 16 (≈ 53.3 µM) |  | 63 (≈ 210 µM) | > 125 | 16 (≈ 53.3 µM) | 63 (≈ 210 µM) | 32 (≈ 107 µM) | 8 (≈ 26.6 µM) |  | 125 (≈ 416 µM) | 4 (≈ 13.3 µM) | > 125 | 32 | 1 (≈ 3.33 µM) | > 125 | 16 (≈ 53.3 µM) | 1 (≈ 3.33 µM) | > 125 | > 125 | MIC (Ent. cloacae A-9656; Enterobacter cloacae A9656): 125 µg/mL (≈ 416 µM); MIC (E. coli A-20341-1; Escherichia coli, A203411; E. coli A20341-1; overnight 37° C.; read-out: Minimum Inhibitory Concentration (M.I.C.)): > 125 µg/mL; ED50 (S. aureus A9537; 1 × 10^6 organisms): 33 mg/kg
3 | O=C(O)C1=C(CCC[N+](=O)[O-])SC2CC(=O)N12 (stereo not drawn) [Example 91, 2-(3'-Nitropropyl)-penem-3-carboxylic Acid] | 4 (≈ 15.5 µM) | 32 (≈ 124 µM) | 2 (≈ 7.74 µM) | 8 (≈ 31 µM) | > 125 | 4 (≈ 15.5 µM) | 4 (≈ 15.5 µM) | 2 (≈ 7.74 µM) | 1 (≈ 3.87 µM) | 63 (≈ 244 µM) | 16 (≈ 62 µM) | 0.25 (≈ 0.968 µM) | 63 (≈ 244 µM) | 16 | 0.25 (≈ 0.968 µM) | 125 (≈ 484 µM) | 1 (≈ 3.87 µM) | 0.25 (≈ 0.968 µM) | > 125 | 125 (≈ 484 µM) | ED50 (S. aureus A9537; 9.1 × 10^5 organisms): 9.6 mg/kg
